Assay results taken from patent US20260240851A1, “Treatment of Parkinson's Disease in a Patient Using a Glucocerebrosidase Activator” (BIAL - R&D Investments, S.A., priority 2023, published 2026).

Key:
Format in all cases: in vivo, human
[1] = system: GluCer in plasma and PBMCs; experiment: LTI-291-001: GluCer biomarker; conditions: single doses, vs placebo
Procedure: The pharmacodynamic evaluations consisted of a battery of CNS (NeuroCart®) assessments, including Saccadic Eye Movements, Smooth Pursuit Eye Movements, Adaptive Tracking, Body Sway, Visual Verbal Learning Test, and EEG. GluCer was measured in plasma and PBMCs as a biomarker of pharmacological effect.

GCase = experiment: Phase 2 study: GCase activity in whole blood (dried blood spot, FIA-MS/MS); conditions: vs placebo
Procedure: In addition, the PD biomarkers and GCase activity in whole blood samples are measured at baseline and week 78 (preferably baseline and weeks 4, 26, 52 and 78). This may include biomarkers of lysosomal activity (e.g., glucosylsphingosine (GluSph) and/or glucosylceramide (GluCer)). Methods of measuring lysosomal activity (e.g., GluSph and/or GluCer) are described above. A method of measuring GCase activity is described below. Magnetic resonance imagining (MRI) scans are performed at baseline and week 78 for a cohort of GBA-PD subjects.
The preferred method of measuring GCase activity in whole blood is described below, and also in Totorelli, 2016, which is incorporated herein by reference:
A 5-plex cocktail assay for GCase, acid a-glucosidase (GAA), galactocerebrosidase (GALC), a-galactosidase A (GLA), and a-L-iduronidase (IDUA) activity is prepared. Vials containing the substrate (S) and internal standards (IS) for GCase and GAA are reconstituted with methanol and transferred to the GALC S+IS vial followed by evaporation. The GLA S+IS vial is reconstituted with 1.8 mL of 96 g/L sodium taurocholate in water and then transferred to the dry GALC S+IS vial, which is then heated to 60° C. to dissolve all solids. […]

[2] = system: GluCer, GluSph and LacCer in PBMCs and plasma; experiment: LTI-291-004: glycolipid biomarkers
Procedure: This study was a Phase 1B, randomized, double-blind, placebo-controlled, multiple oral dose study of Compound A in 14 subjects (aged 51 to 81 years) with GBA-PD. The objectives of this study were to investigate the safety, tolerability, and PK of multiple once-daily oral administration of Compound A and to explore the accompanying pharmacodynamic changes. Subjects received once-daily oral doses of 10 mg (n=6) or 60 mg (2×30 mg capsules) (n=6) Compound A or placebo (n=2) for 28 consecutive days. PK samples were measured once on Day 7 and Day 14 and 4 times after the last dose on Day 28. Plasma concentrations were summarized at each time point, and no PK parameters were estimated. The PD evaluations included fMRI measures; FDG-PET to determine the metabolic rate of glucose in specific regions of the brain; and functional outcome measures (MDS-UPDRS Part III and the MMSE). GluCer, GluSph, and LacCer and other sphingolipids were measured in PBMCs and plasma as biomarkers of pharmacological effect.

Compound: CCCCCO[C@H]1CC[C@H](NC(=O)c2cnn3c(C)cc(C)nc23)CC1 [Compound A, 5,7-dimethyl-N-((1S*,4S)-4-(pentyloxy)cyclohexyl)pyrazolo[1,5-a]pyrimidine-3-carboxamide]
- GluCer variables in PBMCs [1]: Differences between treatment with Compound A and placebo were observed
- GluCer variables in plasma [1]: No significant overall treatment effects
- Mean change in GCase activity in whole blood samples (GCase): higher
- PBMC glycolipid levels ([2]; 10 or 60 mg daily for 28 days, GBA-PD): Significant changes
- Plasma LacCer ([2]; upon Compound A treatment): tended to decrease
- plasma GluCer or GluSph ([2]; upon Compound A treatment): no effect was observed
